Reference: patent US20080305049A1, “Mri Contrast Agents for Diagnosis and Prognosis of Tumors” (priority 2005, published 2008)
Entries after “also recorded” stand apart in the source; their conditions may differ.

Legend:
[1] = system: MDA-MB-231 cells; test: proliferation of ER− human breast cancer cells (MTT method)
Procedure: The number of cells was determined spectrophotometrically using the MTT [3-(4,5-dimethylthiazol-2-yl)-2,5-diphenyltetrazolium bromide] method. The samples are read using an ELISA plate reader at a wavelength of 570 nm. The amount of color produced is directly proportional to the number of viable cells.

[2] = biological target: T1, human recombinant ER (ERα) (Homo sapiens, UniProt P03372); test: competitive radiometric binding assay with tritiated estradiol; conditions: for IC50 / Ki: human recombinant ER; for IC50: read-out: IC50, concentration of competing ligand required to replace half of the ER bound tritiated estradiol; for Ki: read-out: Ki, calculated equilibrium concentration of competing ligand that binds half of the ER binding sites
T1 sequence (P03372 1-595): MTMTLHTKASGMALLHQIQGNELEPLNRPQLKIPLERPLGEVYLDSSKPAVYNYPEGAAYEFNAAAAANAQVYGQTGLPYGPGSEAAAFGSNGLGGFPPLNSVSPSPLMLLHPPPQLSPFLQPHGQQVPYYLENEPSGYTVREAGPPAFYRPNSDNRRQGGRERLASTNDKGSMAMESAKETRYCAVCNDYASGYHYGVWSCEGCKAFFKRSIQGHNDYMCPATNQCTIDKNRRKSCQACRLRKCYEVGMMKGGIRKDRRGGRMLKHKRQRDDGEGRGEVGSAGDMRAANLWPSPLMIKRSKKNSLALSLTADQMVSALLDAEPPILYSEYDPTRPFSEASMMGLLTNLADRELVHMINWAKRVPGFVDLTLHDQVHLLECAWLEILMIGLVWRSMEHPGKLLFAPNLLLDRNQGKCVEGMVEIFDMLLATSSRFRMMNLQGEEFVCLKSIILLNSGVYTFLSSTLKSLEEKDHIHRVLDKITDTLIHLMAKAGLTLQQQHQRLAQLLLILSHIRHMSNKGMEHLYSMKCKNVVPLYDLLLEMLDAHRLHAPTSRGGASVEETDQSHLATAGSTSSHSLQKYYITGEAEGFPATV
Procedure: This procedure yields IC50 displacement values for the inhibition of the binding of tritiated estradiol to the ER. Low IC50 values correlates to high binding affinities.
The binding affinities were determined by performing a competitive radiometric-binding assay using tritiated estradiol and human recombinant ER. […] Table 1 presents the concentration of the competing ligand required to replace half of the ER bound tritiated estradiol, IC50, and the calculated equilibrium concentration of the competing ligand that will bind to half of the ER binding sites, Ki.

[3] = biological target: T2, estrogen receptor (ER)-α in MCF7 cells (Homo sapiens, UniProt P03372); test: Western blot of ER-α level relative to tubulin; assay type: cell-based; conditions: 6 hours after treatment
T2 construct: endogenous in cells; host or cells: MCF7 human breast cancer cells
T2 sequence (P03372 1-595): T1 sequence (P03372 1-595)
Source text: FIG. 10B is a graph showing the quantitative analysis of the blots in terms of ER expression relative to tubulin expression under the various treatments as indicated in the figure.
We then carried out a Western blot for determining the level of the estrogen receptor protein using an anti-ER antibody to identify ER in the blot. […] FIG. 10A depicts the Western blot and FIG. 10B depicts quantitation of the blot: the amount of ER relative to tubulin, assuming tubulin is constant under all treatment manipulations.

[4] = system: MCF7, T47D and ZR-75-1 ER+ human breast cancer cells; test: proliferation of ER+ human breast cancer cells (MTT method); assay type: cell-based; conditions: for agonistic or antagonistic effect on proliferation: 2 μM
Procedure: The agonistic or antagonistic effects of the conjugates and metal complexes thereof were studied by their capacity to enhance or arrest cell growth, respectively.
The vehicle (water) was added as control and served to normalize the changes in cell number.

[5] = T1 and T2 relaxivity of water at 4.7 Tesla; assay type: physicochemical
Procedure: The T1 and T2 relaxivity of the MRI probes, i.e., the Gd complexes of the invention, were measured in saline solutions using standard protocols (i.e inversion recovery for T1 relaxivity and Carr-Purcell-Meiboom-Gill (CPMG) for T2 relaxivity).
The capacity of the Gd complex 7 to serve as a relaxation contrast agent was determined by measuring its relaxivity. […] For the T1 relaxivity measurement, a spin echo sequence was employed with a varying repetition time-TR (11 TRs, from 50 to 15,000 msec) and a fixed echo time of 23 msec.
The T1 relaxivity was determined from the slope.
We determined the MRI properties of the novel paramagnetic ER ligands. T1 and T2 relaxation rates of the water protons were measured as a function of the concentration of the Gd complex 7.

[6] = system: rat uterus; test: MRI of the uterus of ovariectomized rats; assay type: in vivo; conditions: 0.024 mmol/kg
Procedure: We developed and applied in vivo tests of the Gd complex 7 in the classical target organ of estrogen (the rat uterus). […] In order to be able to delineate the uterus, we applied a newly developed segmentation algorithm that enables us to automatically monitor changes in the entire uterine volume and in the changing nuclear relaxation rates due to interaction with 7. […] The endometrium volume increased by 45%, over the entire monitoring period of 5.5 hours, indicating response to the Gd complex 7, as shown in FIGS. 11A-11E.
FIG. 11A depicts the T2-weighted images prior to administration and FIG. 11B depicts the T2-weighted images after 5 hours of administration of compound 7 (the endometrium is circled in green) with the corresponding 3D automatically delineated right horn (FIGS. 11C and 11D) and the corresponding changes in the volume during the entire time course (FIG. 11E).

[7] = in vivo MRI monitoring of distribution and binding in mice with orthotopic MCF7 breast tumor; parameters: species or system CD1-NU immunodeficient female mice; conditions: female, CD1-NU, mouse, tumor (orthotopic MCF7 breast tumor), intravenous; 24 hours after bolus 0.024 mmol/kg, calculated from relaxation rates; read-out: apparent concentration in the tumor
Source text: (§1) Animals: CD1-NU immunodeficient female mice (6-10 weeks old, 20-25 g weight) were provided by the Animal Unit of the Weizmann Institute of Science. During the MRI experiments, the animals were anesthetized by inhalation of 1% Isoflurane in an O2:N2O (3:7) mixture, applied through a nose cone. All animals were handled according to the regulations formulated by the Institutional Animal Care and Use Committee (IACUC) of the Weizmann Institute of Science (Rehovot, Israel).
(§2) Tumors: ER^+ human breast cancer MCF-7 cells were implanted orthotopically into the mammary gland of the CD1-NU immunodeficient female mice, as previously described (Paran et al., 2004). The mice were ovariectomized to eliminate any […] estrogen. Initially a pellet of 17β-estradiol (Innovative Research, Florida) was implanted before the cells were injected, to ensure growth of the tumors. Within 3 weeks, tumors developed to a size of about ˜0.5 ml and consisted of highly proliferating cells. At this stage we removed the estrogen pellet and after a week administered the MRI probe. The extent of accumulation in the tumors was studied in vivo and in excised tumors and was then compared to results obtained by the standard immunostaining technique.
(§3) MRI: The accumulation of the MRI probe was tested by scanning the tumors before the injection of the probe and at times after the injection, using T1 weighted and T2 weighted pulse sequences. MR images were recorded with a 4.7 Tesla scanner (Bruker; Biospec 4.7 T/30 cm bore, dedicated Doty resonator, 3 cm diameter, 200 MHz for protons). The MRI parameters for scanning T2-weighted images were: 2D Spin echo with: TE/TR=69 msec/4000 msec, field of view (FOV) 5 cm, slice thickness 1.2 mm and 128×256 matrix. For T1 measurements two pulse sequences were employed: 1. Inversion recovery pulse sequence with varying T1 (n=20) ranging from 10 to 10000 msec, TE/TR=3.15 msec/15 msec, flip angle 10 degrees; 2. Fast gradient echo sequence. The spatial resolution was as in the T2 weighted image except the matrix was 128×128.
(§4) Distribution of the MR probes: The distribution of the Gd complex 7 in the blood, inner organs and the tumors was monitored over a period of 24 h after a bolus injection of 7 into the tail vein at a dose ranging from 0.024 to 0.4 mmol/kg.
(§5) The contrast agent distribution was monitored, alternating between two pulse sequences: 1. T1-weighted, 3D gradient echo with TE/TR of 4.3/18.3 ms; a 30° flip angle, 2. 2D inversion or saturation recovery sequence with varying T1 (n=20) ranging from 10 to 10000 msec, and gradient echo acquisition with TE/TR of 3.5/15 msec and 100 flip angel. The latter sequence enabled us to map the T1 relaxation time. The spatial resolution was the same for both sequences and during the whole experiment time, namely, 0.2×0.4×1.2 mm^3. Susceptibility gradient echo and T2 weighted spin echo protocols were employed to generate the MR images of the animal.
(§6) Several protocols of administration of the Gd complex 7 were examined: a high and low dose bolus injection of 0.4 mmol/kg and 0.024 mmol/kg, respectively (FIGS. 7 and 8), and a slow infusion (drip) protocol over 60 min of the high dose.
(§7) To determine the ER-binding of 7 administered at low concentration (0.024 mmol/kg), we performed measurements up to 24 after its administration, when all the tissues appeared to be cleared from the probe. FIGS. 7A-7B show the time course of the T1 relaxation in the bladder, orthotopic MCF7 breast tumor and muscle of a female CD1-NU immunodeficient mouse after a bolus administration of a low dose of 7 (0.024 mmol/kg) (7B) and the area of each organ as marked on the upper T2-weighted image (FIG. 7A). The images at 0, 0.5 and 2.5 h were recorded with the anaesthetized mouse in the same position. After the 2.5 h measurement, the mouse was returned to its cage and was again scanned under anesthesia at the 7 and 24 hours time points. […] The central slice of each organ is presented. […]

[8] = system: orthotopic ER+ MCF7 breast tumor; test: as above; parameters: species or system CD1-NU immunodeficient female mice
Source text: as §1, §2, §3, §4, §5, §6, §7

[9] = toxicology after intravenous injection; assay type: in vivo, CD1-NU mice
Source text: as §1
Toxicology: The probes (e.g. Gd complex 7) were injected into the tail vein of CD1-NU mice at a varying dose in the range of 0.024 to 1.0 mmol/kg weight.

[10] = bolus 0.4 mmol/kg, about 5 hours

For C[C@]12CC[C@@H]3c4ccc(O)cc4CC[C@H]3[C@@H]1CC[C@@H]2O [17β-estradiol, reference compound], the “sensitivity of proliferation of ER− cells” value (“sensitivity” for short) [1] was “neither sensitive”.
For C[C@]12CCC3c4ccc(O)cc4CCC3C1CC[C@@]2(O)C#Cc1cc(CN(CC(=O)O)CC(=O)O)nc(CN(CC(=O)O)CC(=O)O)c1 (stereo partly shown) [Compound 6], the “sensitivity” value [1] was “neither sensitive”, the IC50 [2] was 4400 nM and the Ki [2] was 400 nM. For the same compound, the “effect on ER-α level” value [3] was “induced partial degradation of the receptor; also recorded: induce ER reduction”, the “dose at which induction of proliferation occurred” value ([4]; ER+ human breast cancer cells) was “nanomolar” and the “stimulation of cell growth” value ([4]; MCF7, T47D, ZR-75-1, 30 nM or 1 μM) was “stimulated the growth of the cells in a similar manner to that of estrogen”. For the same compound, the “agonistic or antagonistic effect on proliferation” value ([4]; MCF7, T47D) was “agonistic” and the toxicity to cells ([4]; high concentrations) was “toxic at high concentrations”.
In the case of CC12CCC3c4ccc(O)cc4CCC3C1CCC2(O)C#Cc1cc(CN(CC(=O)O)CC(=O)O)nc(CN(CC(=O)O)CC(=O)O)c1 (stereo not shown) [Compound 7], the “sensitivity” value [1] is reported as “neither sensitive”, the “binding affinity to ER (in words)” value [2] is reported as “strong binding affinity to ER, comparable to that of tamoxifen” and the T1 relaxivity [5] is reported as 7.99 ± 0.05 mM⁻¹ s⁻¹. The T2 relaxivity [5] was 30.8 ± 1.0 mM⁻¹ s⁻¹, the “effect in the uterus” value [6] was “agonistic effect in the uterus” and the “increase of endometrium volume” value ([6]; over 5.5 hours) was 45%. The concentration at 24 h [7] was 2500 nM, the “final concentration in tumor versus muscle” value ([8]; 2 h after 1 hour slow infusion of 0.4 mmol/kg) was “similar” and the “muscle T1 relaxation rate (R1)” value ([8]; 24 hours after 0.024 mmol/kg) was “returned to that measured before”. The “tumor T1 relaxation rate (R1) increase” value ([8]; 24 hours after 0.024 mmol/kg) was “small but persistent”, the “residual amount in the muscle” value ([8]; 24 hours after bolus 0.024 mmol/kg) was “no residual amount” and the “clearance through the kidneys into the urine compared with GdDTPA” value ([8]; bolus 0.4 mmol/kg) was “several folds slower”. The “time of full clearance after administration” value ([8]; bolus 0.4 mmol/kg) was 24 h, the “MRI signal enhancement in the muscle” value [8, 10] was “declined close to pre-contrast administration” and the “MRI signal enhancement in the tumor” value [8, 10] was “persisted throughout the experimental time”. The “toxicity (summary statement)” value ([9]; mice and rats) was “non toxic in mice and rats”, the “tolerability of repetitive administration” value ([9]; repetitive administration 3-7 days apart) was “appeared to be harmless” and the “lethality and adverse effects” value ([9]; up to 0.4 mmol/kg, intravenous, CD1-NU mice) was “not lethal and does not cause obvious adverse effects; also recorded: non-toxic”. For the same compound, the “effect on ER-α level” value [3] was “induced partial degradation of the receptor; also recorded: induce ER reduction”.
In the case of CC/C(=C(\c1ccc(C#Cc2cc(CN(CC(=O)O)CC(=O)O)nc(CN(CC(=O)O)CC(=O)O)c2)cc1)c1ccc(OCCN(C)C)cc1)c1ccccc1 [Compound 16], the IC50 [2] is reported as 5300 nM, the Ki [2] is reported as 480 nM and the “effect on ER-α level” value [3] is reported as “acted like tamoxifen; also recorded: do not affect ER level”. For the same compound, the “hormonal activity (summary statement)” value [4] was “antagonist to estrogen” and the “agonistic or antagonistic effect on proliferation” value ([4]; MCF7, T47D) was “did not elicit an estrogenic effect”.
For C[C@]12CC[C@@H]3c4ccc(O)cc4C[C@@H](CCCCCCCCC[S+]([O-])CCCC(F)(F)C(F)(F)F)[C@H]3[C@@H]1CC[C@@H]2O (stereo partly shown) [ICI-182780, reference compound], the “effect on ER-α level” value [3] was “down regulation”.
